Reference: patent publication US8192962B2, “Processes for detecting toxic substances” (Daikin Industries, Ltd., priority 2001, dated 2012)

System: Unknown protein yeast genes
Test: DNA chip mRNA expression in yeast, unknown protein yeast genes (Table 1)
Assay type: cell-based, Saccharomyces cerevisiae S288C
How it was run: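 Whole-genome yeast DNA chip hybridization (65° C., >12 h) of Cy-labeled cDNA from S288C cells exposed 2 h at 25° C. to a sub-lethal toxicant dose in YPD; value is intensity relative to chemical-free control.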

## S=C([S-])NCCNC(=S)[S-].[Zn+2] [(11), zinc N,N′-ethylenebis(dithiocarbamate)]
Yeast gene YAL053W, incubated two hours with chemical substance
  The level of expressed mRNA in the presence of chemical substance/The level of expressed mRNA in the absence of chemical substance: 2.3
Yeast gene YBL048W
  The level of expressed mRNA in the presence of chemical substance/The level of expressed mRNA in the absence of chemical substance: 2.0
Yeast gene YBL107C
  The level of expressed mRNA in the presence of chemical substance/The level of expressed mRNA in the absence of chemical substance: 2.9
Yeast gene YDL072C, incubated two hours with chemical substance
  The level of expressed mRNA in the presence of chemical substance/The level of expressed mRNA in the absence of chemical substance: 1.4
Yeast gene YDL204W, incubated two hours with chemical substance
  The level of expressed mRNA in the presence of chemical substance/The level of expressed mRNA in the absence of chemical substance: 3.2
Yeast gene YDL222C, incubated two hours with chemical substance
  The level of expressed mRNA in the presence of chemical substance/The level of expressed mRNA in the absence of chemical substance: 2.6
Yeast gene YDR330W, incubated two hours with chemical substance
  The level of expressed mRNA in the presence of chemical substance/The level of expressed mRNA in the absence of chemical substance: 0.9
Yeast gene YDR391C, incubated two hours with chemical substance
  The level of expressed mRNA in the presence of chemical substance/The level of expressed mRNA in the absence of chemical substance: 1.9
Yeast gene YDR411C, incubated two hours with chemical substance
  The level of expressed mRNA in the presence of chemical substance/The level of expressed mRNA in the absence of chemical substance: 1.3
Yeast gene YDR511W, incubated two hours with chemical substance
  The level of expressed mRNA in the presence of chemical substance/The level of expressed mRNA in the absence of chemical substance: 1.2
Yeast gene YDR545W, incubated two hours with chemical substance
  The level of expressed mRNA in the presence of chemical substance/The level of expressed mRNA in the absence of chemical substance: 0.7
Yeast gene YEL001C, incubated two hours with chemical substance
  The level of expressed mRNA in the presence of chemical substance/The level of expressed mRNA in the absence of chemical substance: 1.2
Yeast gene YER004W, incubated two hours with chemical substance
  The level of expressed mRNA in the presence of chemical substance/The level of expressed mRNA in the absence of chemical substance: 2.2
Yeast gene YER035W, incubated two hours with chemical substance
  The level of expressed mRNA in the presence of chemical substance/The level of expressed mRNA in the absence of chemical substance: 1.4
Yeast gene YER079W, incubated two hours with chemical substance
  The level of expressed mRNA in the presence of chemical substance/The level of expressed mRNA in the absence of chemical substance: 2.1
Yeast gene YER106W, incubated two hours with chemical substance
  The level of expressed mRNA in the presence of chemical substance/The level of expressed mRNA in the absence of chemical substance: 1.0
Yeast gene YER158C, incubated two hours with chemical substance
  The level of expressed mRNA in the presence of chemical substance/The level of expressed mRNA in the absence of chemical substance: 2.3
Yeast gene YER163C, incubated two hours with chemical substance
  The level of expressed mRNA in the presence of chemical substance/The level of expressed mRNA in the absence of chemical substance: 1.6
Yeast gene YER175C, incubated two hours with chemical substance
  The level of expressed mRNA in the presence of chemical substance/The level of expressed mRNA in the absence of chemical substance: 1.1
Yeast gene YFL006W, incubated two hours with chemical substance
  The level of expressed mRNA in the presence of chemical substance/The level of expressed mRNA in the absence of chemical substance: 1.2
Yeast gene YFL010C, incubated two hours with chemical substance
  The level of expressed mRNA in the presence of chemical substance/The level of expressed mRNA in the absence of chemical substance: 1.4
Yeast gene YFL024C
  The level of expressed mRNA in the presence of chemical substance/The level of expressed mRNA in the absence of chemical substance: 0.6
Yeast gene YFL032W, incubated two hours with chemical substance
  The level of expressed mRNA in the presence of chemical substance/The level of expressed mRNA in the absence of chemical substance: 1.1
Yeast gene YGL037C, incubated two hours with chemical substance
  The level of expressed mRNA in the presence of chemical substance/The level of expressed mRNA in the absence of chemical substance: 3.9
Yeast gene YGL047W, incubated two hours with chemical substance
  The level of expressed mRNA in the presence of chemical substance/The level of expressed mRNA in the absence of chemical substance: 1.9
Yeast gene YGL053W, incubated two hours with chemical substance
  The level of expressed mRNA in the presence of chemical substance/The level of expressed mRNA in the absence of chemical substance: 1.3
Yeast gene YGL121C
  The level of expressed mRNA in the presence of chemical substance/The level of expressed mRNA in the absence of chemical substance: 6.1
Yeast gene YGL218W
  The level of expressed mRNA in the presence of chemical substance/The level of expressed mRNA in the absence of chemical substance: 0.1
Yeast gene YGR101W, incubated two hours with chemical substance
  The level of expressed mRNA in the presence of chemical substance/The level of expressed mRNA in the absence of chemical substance: 2.0
Yeast gene YGR110W
  The level of expressed mRNA in the presence of chemical substance/The level of expressed mRNA in the absence of chemical substance: 0.5
Yeast gene YGR130C, incubated two hours with chemical substance
  The level of expressed mRNA in the presence of chemical substance/The level of expressed mRNA in the absence of chemical substance: 0.8
Yeast gene YGR142W
  The level of expressed mRNA in the presence of chemical substance/The level of expressed mRNA in the absence of chemical substance: 2.3
Yeast gene YGR154C, incubated two hours with chemical substance
  The level of expressed mRNA in the presence of chemical substance/The level of expressed mRNA in the absence of chemical substance: 1.5
Yeast gene YGR221C, incubated two hours with chemical substance
  The level of expressed mRNA in the presence of chemical substance/The level of expressed mRNA in the absence of chemical substance: 0.5
Yeast gene YHR138C, incubated two hours with chemical substance
  The level of expressed mRNA in the presence of chemical substance/The level of expressed mRNA in the absence of chemical substance: 1.6
Yeast gene YHR199C, incubated two hours with chemical substance
  The level of expressed mRNA in the presence of chemical substance/The level of expressed mRNA in the absence of chemical substance: 1.9
Yeast gene YIL023C, incubated two hours with chemical substance
  The level of expressed mRNA in the presence of chemical substance/The level of expressed mRNA in the absence of chemical substance: 1.1
Yeast gene YIL041W, incubated two hours with chemical substance
  The level of expressed mRNA in the presence of chemical substance/The level of expressed mRNA in the absence of chemical substance: 1.4
Yeast gene YIL087C, incubated two hours with chemical substance
  The level of expressed mRNA in the presence of chemical substance/The level of expressed mRNA in the absence of chemical substance: 2.8
Yeast gene YIL089W
  The level of expressed mRNA in the presence of chemical substance/The level of expressed mRNA in the absence of chemical substance: 0.7
Yeast gene YJL057C, incubated two hours with chemical substance
  The level of expressed mRNA in the presence of chemical substance/The level of expressed mRNA in the absence of chemical substance: 2.0
Yeast gene YJL066C, incubated two hours with chemical substance
  The level of expressed mRNA in the presence of chemical substance/The level of expressed mRNA in the absence of chemical substance: 0.8
Yeast gene YJL082W, incubated two hours with chemical substance
  The level of expressed mRNA in the presence of chemical substance/The level of expressed mRNA in the absence of chemical substance: 1.0
Yeast gene YJL151C, incubated two hours with chemical substance
  The level of expressed mRNA in the presence of chemical substance/The level of expressed mRNA in the absence of chemical substance: 1.0
Yeast gene YJL152W, incubated two hours with chemical substance
  The level of expressed mRNA in the presence of chemical substance/The level of expressed mRNA in the absence of chemical substance: 1.0
Yeast gene YJL161W, incubated two hours with chemical substance
  The level of expressed mRNA in the presence of chemical substance/The level of expressed mRNA in the absence of chemical substance: 3.7
Yeast gene YJL171C, incubated two hours with chemical substance
  The level of expressed mRNA in the presence of chemical substance/The level of expressed mRNA in the absence of chemical substance: 2.2
Yeast gene YJR008W, incubated two hours with chemical substance
  The level of expressed mRNA in the presence of chemical substance/The level of expressed mRNA in the absence of chemical substance: 1.4
Yeast gene YJR054W, incubated two hours with chemical substance
  The level of expressed mRNA in the presence of chemical substance/The level of expressed mRNA in the absence of chemical substance: 0.7
Yeast gene YKL071W
  The level of expressed mRNA in the presence of chemical substance/The level of expressed mRNA in the absence of chemical substance: 40.3
Yeast gene YKL086W, incubated two hours with chemical substance
  The level of expressed mRNA in the presence of chemical substance/The level of expressed mRNA in the absence of chemical substance: 0.7
Yeast gene YKL151C, incubated two hours with chemical substance
  The level of expressed mRNA in the presence of chemical substance/The level of expressed mRNA in the absence of chemical substance: 2.3
